From patent EP0406111A1, “Substituted arylamines and heteroarylamines, process for their preparation and pharmaceutical composition containing them” (SOCIETE DE CONSEILS DE […] D'APPLICATIONS SCIENTIFIQUES …, priority 1989, dated 1991) come the findings set out here.

The target in assay [1] is T1, capture de (³H)dopamine par les synaptosomes striataux de rat (Rattus norvegicus, UniProt P23977).
T1 construct: Les culots résultants P2 contenant les synaptosomes bruts sont ensuite utilisés sans purification supplémentaire; from tissue; host or cells: Wistar rat striatum, crude synaptosomes (P2 pellet)
T1 sequence (P23977 whole entry): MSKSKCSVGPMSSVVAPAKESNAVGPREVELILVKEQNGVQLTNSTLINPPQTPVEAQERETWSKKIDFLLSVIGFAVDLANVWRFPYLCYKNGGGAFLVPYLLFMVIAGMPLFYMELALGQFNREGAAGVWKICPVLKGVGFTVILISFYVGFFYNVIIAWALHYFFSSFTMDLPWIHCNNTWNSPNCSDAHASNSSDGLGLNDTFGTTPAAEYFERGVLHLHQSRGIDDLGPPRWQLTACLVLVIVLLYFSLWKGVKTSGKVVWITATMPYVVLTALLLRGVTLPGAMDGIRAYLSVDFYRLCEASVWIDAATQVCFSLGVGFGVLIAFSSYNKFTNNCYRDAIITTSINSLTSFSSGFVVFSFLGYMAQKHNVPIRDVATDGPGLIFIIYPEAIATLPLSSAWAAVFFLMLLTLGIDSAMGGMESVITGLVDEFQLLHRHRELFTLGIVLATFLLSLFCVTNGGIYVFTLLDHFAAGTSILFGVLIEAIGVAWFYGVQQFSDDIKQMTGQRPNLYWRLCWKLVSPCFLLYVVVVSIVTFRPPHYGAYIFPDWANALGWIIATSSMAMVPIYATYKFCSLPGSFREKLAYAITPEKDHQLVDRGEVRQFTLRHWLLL
Nature of the assay: biochemical. As for the experimental part:
Ce test est pratiqué selon la méthode utilisée par Vignon et Lazdunski en opérant de la façon suivante. Des rats Wistar pesant 200-250g sont tués par dislocation cervicale. Leurs cerveaux sont rapidement prélevés et les striata sont dissé-qués sur la glace. Les striata sont ensuite homogéné-isés (10 allers-retours) avec un homogénéisant Potter dans 50 volumes de tampon Tris HCl 10 mM à pH 7,4 contenant 0,32 M de sucrose. L'homogénat est ensuite centrifugé à 1000g pendant 10min à 4°C, puis le surnageant obtenu est recentrifugé à 10000g pendant 20min à 4°C. Les culots résultants P2 contenant les synaptosomes bruts sont ensuite utilisés sans purification supplémentaire.
On ajoute alors de la dopamine tritiée ((³H)DA, Amersham) à une concentration finale de 5 nM pendant 5 min à 30°C, et on interrompt sa capture par filtration de 150 µl du milieu d'incubation sur des filtres en fibres de verre GF/B (Whatman). La radioactivité retenue par les filtres est mesurée dans un compteur à scintillation liquide (LKB)avec 3 ml d'ACS (Amersham) comme scintillant. La capture non spécifique est mesurée à 4°C dans des incubations parallèles : elle est ensuite sous-traite de la capture totale mesurée à 30°C.
Les composés à tester sont solubilisés au départ dans de l'eau à une concentration de 1mM et les autres concentrations sont obtenues par des dilutions successives de cette solution mère dans l'eau.

For assay [2], the target named is T2, complexe de recapture de la dopamine (Rattus norvegicus, UniProt P23977).
T2 construct: expériences de compétition sur les membranes de striatum préparées comme ci-dessus; from tissue; host or cells: rat striatal membranes
T2 sequence (P23977 whole entry, one chain of several): as the sequence (P23977 whole entry) above
In words: biochemical. The class given is binding. Conditions: for Sélectivité IC50[^3H]TCP / IC50[^3H]BTCP: ratio of IC50 at the PCP receptor to IC50 at the dopamine reuptake complex. Here is the method:
Exemple 35 : Affinité des composés pour les sites de liaison de la (³H)BTCP sur les membranes striatales de cerveaux de rats.
Les striata de cerveaux de rats rapidement disséqués dans la glace sont homogénéisés avec un ultra turax pendant 30 s (position 6) dans 50 volumes d'une solution de sucrose 0,32 M tamponnée par du Tris-HCl 10 mM à pH = 7,4. L'homogénat est centrifugé à 4°C à 1000g pendant 10 mln, puis le surnageant obtenu est centrifugé à 40000 g à 4°C pendant 30 min et les culots obtenus sont repris dans 1 ml de tampon par striatum.
L'affinité des composés pour le complexe de recapture de la dopamine est déterminée par des expériences de compétition sur les membranes de striatum préparées comme ci-dessus. Le ligand radioactif utilisé est la (³H)BTCP (Service des Molécules Marquées du CEA, Saclay France) à 55Ci/mmol.
Après 90 min à 4°C, 3 aliquots de 250 µl sont filtrés sous vide sur des filtres de fibre de verre GF/B (Whatman). La liaison non spécifique est obtenue dans des expériences parallè-les réalisées en présence de 10 µM de BTCP non marquée. Elle est soustraite de la liaison totale pour obtenir la liaison spécifique.

The test system of another assay is souris Swiss. In words: Locomotor activity of mice in the Boissier-Simon actimeter (Example 38). Conditions: 30 min after administration, beams crossed from 20th to 35th minute. The class given is in vivo. Here is the method: Exemple 38 : Mesure de l'activité locomotrice.
L'activité locomotrice de souris Swiss (mâles CD1, 25-30 g, Charles River, St Aubin lès Elbeuf, France) est mesurée dans l'actimètre Boissier-Simon (Apelex, Bagneux, France).
30 minutes après l'administration des composés à tester (10 mg/kg, i.p.), les souris sont introduites dans des cages individuelles en Plexiglass (L = 26 cm, l = 20 cm, h = 10 cm), équipées de deux cellules photoélectriques situées à 1 cm au-dessus du plancher. Chaque cellule est reliée à un compteur électromécanique. "L'activité locomotrice" correspond au nombre de rayons traversés, de la 20ème à la 35ème minute après introduction dans les cages d'actimétrie.

The next assay addresses récepteur de la PCP. In words: Competition binding at the (3H)TCP sites on rat brain homogenates (Example 36). The note with it: 1 nM (3H)TCP, 30 min at 25°C. The text has this:
Exemple 36 : Affinité des composés pour les sites de liaison de la (³H)TCP sur les homogénats de cerveaux de rats.
Dans cet essai on mesure les affinités des composés pour le récepteur de la PCP par des expériences de compétition sur des homogénats de cerveaux de rats. Le ligand radioactif utilisé est la (³H)TCP à une activité spécifique de 62 Ci/mmol (Service des Molécules Marquées, CEA Saclay France).
Les cerveaux de rats (sans le cervelet et le tronc cérébral) sont homogénéisés à l'ultra turax dans 20 volumes de tampon Hepes-Tris 50 mM, pH 7,7. Après centrifugation pendant 30 min à 15000 g le culot est repris dans le même volume de tampon et recentrifugé dans les mêmes conditions. Le culot final est repris dans du tampon Hepes-Tris 50 mM, pH 7,7 de façon à obtenir une concentration en protéine de 6 à 8 mg/ml.
Les expériences de compétition sont réalisées en incubant pendant 30 min les membranes (concentration finale en protéine : 0,6 à 0,8 mg/ml) en milieu tampon 5 mM Hepes-Tris, pH 7,7 à 25°C, en présence d'une concentration fixe de ligand tritié (1 nM)et de concentrations croissantes de composés à tester. Trois échantillons de 600 µL sont ensuite filtrés sur filtres de fibres de verre GF/B prétraités par du PEI (polyéthylénimine) à 0,1%. Les filtres sont rincés avec 3x5ml de tampon Tris-HCl 10 mM, NaCl 100 mM et la radioactivité retenue est mesurée dans un compteur à scintillation liquide. La liaison non spécifique est obtenue en présence de TCP […].

Setting [3] is: rat striatal synaptosomes, 5 nM (3H)DA, 5 min at 30°C, read-out: [3H] DA IC50.
The mark [4] stands for this setting: rat striatal membranes, 0,2 nM (3H)BTCP, 90 min at 4°C, read-out: [3H] BTCP IC50.

Where two headings read alike, the source gives them in different places.

For the compound `CC(=O)OCC1CCCN(C2(c3cc4ccccc4s3)CCCCC2)C1` (centres unmarked) [composé n^o 15, acétate de (benzo(b)-thiophényl-2)-1 ((hydroxyméthyl-3 pipéridino)-1)-1 cyclohexane], the IC50 is 44.5 nM in assay [1] (setting [3]) and 24 nM in assay [2] (setting [4]).
As to `CC1CCCCC1(c1cc2ccccc2s1)N1CCCCC1` (centres unmarked) [composé n^o 25, (benzo(b)thiophényl-2)-1 t-méthyl-2--r-(pipéridino-1)-1 cyclohexane], the IC50 in assay [1] (setting [3]) was 1280 nM; in assay [2] (setting [4]), 1480 nM.
As to `C[C@H]1CCCC[C@@]1(c1cc2ccccc2s1)N1CCCCC1` (relative stereo) [composé n^o 24, (benzo(b)thiophényl--2)-1 c-méthyl-2-r-(pipéridino-1)-1 cyclohexane], the results for the IC50 in assay [1] (setting [3]) and in assay [2] (setting [4]) were 30.6 nM and 14.7 nM, respectively. For the same compound, the “Activité locomotrice Variation (%) par rapport aux témoins (100%) pour la dose 10 mg/kg,i.p.” value in the assay on souris Swiss was “+101±23%”.
For `CCN(CC)C1(c2cc3ccccc3s2)CCCCC1` [composé n^o8, (benzo(b)thiophényl-2)-1 (diéthylamino-1)-1 cyclohexane], the IC50 in assay [1] worked out at 20.1 nM; in assay [2], 16.7 nM. Also, the “Activité locomotrice Variation (%) par rapport aux témoins (100%) pour la dose 10 mg/kg,i.p.” value with souris Swiss was “+52±21%”.
For `CC1CCN(C2(c3cc4ccccc4s3)CCCCC2)CC1` [composé n^o 7, (benzo(b)thiophényl-2)-1 ((méthyl-4 pipéridino)-1)-1 cyclohexane], the IC50 came out at 11.5 nM in assay [1] (setting [3]) and 30.8 nM in assay [2] (setting [4]).
Take `ICC1CCCN(C2(c3cc4ccccc4s3)CCCCC2)C1` (centres unmarked) [composé n^o 11]: the IC50 in assay [1] (setting [3]) was 54.3 nM; in assay [2] (setting [4]), 26 nM; at récepteur de la PCP, over 100 µM. Also, the “Sélectivité IC50[^3H]TCP / IC50[^3H]BTCP” value in assay [2] was >>3846.
Take `c1ccc2sc(C3(N4CCC5(CC4)OCCO5)CCCCC3)cc2c1` [composé n^o 5, (benzo(b)thiophényl-2)-1 ((éthylènekétal-4 pipéridino)-1)-1 cyclohexane]: the figures for the IC50 (in assay [1] (setting [3]); in assay [2] (setting [4]); at récepteur de la PCP) were 65.7 nM, 35.5 nM and over 100 µM, respectively. For the same compound, the “Sélectivité IC50[^3H]TCP / IC50[^3H]BTCP” value in assay [2] is >>2816.
With `C[C@H]1CCC[C@@](c2cc3ccccc3s2)(N2CCCCC2)C1` (relative stereo) [composé n^o 22, (benzo(b)thiophényl-2)-1 c-méthyl-3-r-(piperidino-1)-1 cyclohexane], the IC50 in assay [1] (setting [3]) came out at 691 nM; in assay [2] (setting [4]) it was 369 nM.
`CC1CC(C)CN(C2(c3cc4ccccc4o3)CCCC(C)C2)C1` (centres unmarked) [composé n^o 14, (benzo(b)furannyl-2)-1-r-((diméthyl-3,5 pipéridino)-1)-1 t-méthyl-3 cyclohexane]: the IC50 is 2740 nM in assay [1] (setting [3]) and 2210 nM in assay [2] (setting [4]).
Consider `ClCC1CCCN(C2(c3cc4ccccc4s3)CCCCC2)C1` (centres unmarked) [composé n^o 12, (benzo(b)thiophényl-2)-1 ((chlorométhyl-3 pipéridino)-1)-1 cyclohexane], for which the figures for the IC50 in assay [1] (setting [3]) and in assay [2] (setting [4]) were 107 nM and 102 nM, respectively.
As to `c1ccc2c(C3(N4CCCCC4)CCCCC3)cccc2c1` [composé n^o 17, (naphtyl-1)-1 (pipéridino-1)-1 cyclohexane], the values for the IC50 in assay [1] (setting [3]) and in assay [2] (setting [4]) were 3250 nM and 2560 nM, respectively.
`OCC1CCCN(C2(c3cc4ccccc4s3)CCCCC2)C1` (centres unmarked) [composé n^o 9, (benzo(b)thiophényl-2)-1 ((hydroxyméthyl-3 pipéridino)-1)-1 cyclohexane]: the IC50 in assay [1] (setting [3]) came to 20.9 nM; in assay [2] (setting [4]), 18.1 nM. Also, in the assay with souris Swiss, the “Activité locomotrice Variation (%) par rapport aux témoins (100%) pour la dose 10 mg/kg,i.p.” value is given as “+416±36%”.
For the compound `CC1CCCC(c2cc3ccccc3s2)(N2CCCCC2)C1` (centres unmarked) [composé n^o 23, (benzo(b)thiophényl-2)-1 t-méthyl-3-r-(pipéridino-1)-1 cyclohexane], the IC50 in assay [1] (setting [3]) is 606 nM; in assay [2] (setting [4]) it was 590 nM.
Consider `CC1CC(C)CN([C@]2(c3cc4ccccc4s3)CC[C@H](C)CC2)C1` (relative stereo) [composé n^o 13, (benzo(b)thiophényl-2)-1-r-((diméthyl-3,5 pipéridino)-1)-1 c-méthyl-4 cyclohexane], for which the IC50 in assay [1] (setting [3]) is 425 nM; in assay [2] (setting [4]), 635 nM.
